# US20150133547A1, “METHOD AND COMPOSITION FOR TREATING GLAUCOMA” (priority 2013, published 2015)
# How the values were obtained:
# [1] = system: canine subjects; assay: Intraocular pressure (IOP) in canine subjects after topical LC drops, iCARE rebound tonometer; assay type: in vivo
# Description: Preparations: The desired composition was DMSO 4.0%, PG 3.0% and LC 10 mg/ml (1% (by weight)), based upon the total composition.
# A vehicle was prepared for use as a subsequent dilution (serial dilutions of the initial LC strength), by mixing 4.65 ml of BSS, 0.2 ml of DMSO, and 0.15 ml of PG, to yield a diluent vehicle comprising 4.0% DMSO and 3.0% PG, based upon the total composition. A total of 5 ml was prepared.
# Methodology: Inventive compositions were prepared by simple mixing.
# IOP was determined using an iCARE® rebound tonometer. Other commercially available IOP measuring devices (tonometers) may also be used.
# Progressive dilutions of the composition set forth in Table 1 are shown in Table 2, below, starting with the original 2.5 ml volume preparation of Table 1. These subsequent dilutions were used in the canine experiments set forth below.
# The experiments were conducted on canine subjects. Canine subjects have IOP's that are the same (˜10-20 mm/Hg) as that of a human subject. Canines and humans share a common susceptibility gene, SRBD1, for glaucoma risk. Consequently, canines are excellent surrogates to assess the results of the use of the inventive compositions on humans. The results of the experiments are set forth in Table 3, below, reflecting the concentration range of LC used as 0.002% to 0.100% (by weight).
# Additional efficacy and safety experiments were conducted using an LC concentration of 0.600% (by weight) in the same animal model. This additional data confirms in two animals the safety and efficacy of topical LC in reducing intraocular pressure.
# A series of experiments was run in the same canine model, using LC concentrations, prepared as above, and ranging from 0.200% to 0.700% (by weight).
# [2] = cited from earlier work
# [3] = cited from earlier work; remark: listed apart in the source
# [4] = system: canine subjects; assay: Adverse events in canine subjects after topical LC (daily ophthalmic examinations, toxicology studies of blood)
# [5] = cited from earlier work; remark: listed apart in the source
# [6] = system: rabbits; conditions: cited from earlier work
# [7] = system: rats; conditions: cited from earlier work
# [8] = system: Humans; conditions: handling of pure or concentrated lambda-cyhalothrin; cited from earlier work
# [9] = system: guinea pigs; conditions: cited from earlier work
# [10] = Example 2, canine, topical LC 0.600%, Day 1, drop 9:30, IOP at 9:55
# [11] = Example 2, canine, topical LC 0.600%, Day 1, drop 12:00, IOP at 12:30
# [12] = Example 2, canine, topical LC 0.600%, Day 3, drop 9:45, IOP at 10:15
# [13] = Example 2, canine, topical LC 0.600%, Day 3, drop 12:10, IOP at 12:40
# [14] = Example 3, canine, topical LC 0.200%, Day 2, drop 7:40, IOP at 8:45
# [15] = Example 3, canine, topical LC 0.300%, Day 3, drop 7:25, IOP at 7:25
# [16] = Example 3, canine, topical LC 0.300%, Day 3, drop 12:25, IOP at 13:50
# [17] = Example 3, canine, topical LC 0.300%, Day 3, drop 17:40, IOP at 17:30
# [18] = Example 3, canine, topical LC 0.400%, Day 4, drop 7:25, IOP at 7:20
# [19] = Example 3, canine, topical LC 0.400%, Day 4, drop 12:40, IOP at 12:35
# [20] = Example 3, canine, topical LC 0.400%, Day 4, drop 17:25, IOP at 17:20
# [21] = Example 3, canine, topical LC 0.500%, Day 5, drop 7:30, IOP at 7:20
# [22] = Example 3, canine, topical LC 0.500%, Day 5, drop 12:40, IOP at 12:35
# [23] = Example 3, canine, topical LC 0.600%, Day 8, drop 7:30, IOP at 7:00
# [24] = Example 3, canine, topical LC 0.600%, Day 8, drop 12:05, IOP at 12:00
# [25] = Example 3, canine, topical LC 0.600%, Day 8, drop 17:00, IOP at 16:30
# [26] = Example 3, canine, topical LC 0.700%, Day 9, drop 7:05, IOP at 7:00
# [27] = Example 3, canine, topical LC 0.700%, Day 9, drop 12:25, IOP at 12:20
# [28] = Example 3, canine, topical LC 0.700%, Day 9, drop 17:05, IOP at 17:00
# [29] = canine, topical LC 0.002%, Day 4, drop 8:30, IOP at 9:50
# [30] = canine, topical LC 0.002%, Day 5, drop 9:00, IOP at 9:50
# [31] = canine, topical LC 0.002%, Day 5, drop 14:30, IOP at 15:00
# [32] = canine, topical LC 0.020%, Day 7, drop 9:00, IOP at 9:30
# [33] = canine, topical LC 0.020%, Day 7, drop 15:00, IOP at 16:00
# [34] = canine, topical LC 0.050%, Day 9, drop 9:00, IOP at 9:30
# [35] = canine, topical LC 0.050%, Day 9, drop 15:00, IOP at 16:00
# [36] = canine, topical LC 0.100%, Day 11, drop 9:00, IOP at 9:42
# [37] = canine, topical LC 0.100%, Day 11, drop 15:00, IOP at 15:22
smiles,measurement,setting,value
"CC1(C)C(/C=C(\Cl)C(F)(F)F)C1C(=O)OC(C#N)c1cccc(Oc2ccccc2)c1 [LC, (R)-cyano(3-phenoxyphenyl) methyl (1S,3S)-rel-3-[(1Z)-2-chloro-3,3,3-trifluoro-1-propenyl]-2,2-dimethyl cyclopropane carboxylate]",reduction in intraocular pressure after topical administration,"[1]; Example 1, canine, 0.002% to 0.100% (by weight), dose related",significant reduction
same,IOP OD,[1]; [10],8
same,IOP OS,[1]; [10],7
same,IOP OD,[1]; [11],8
same,IOP OS,[1]; [11],8
same,IOP OD,[1]; [12],6
same,IOP OS,[1]; [12],7
same,IOP OD,[1]; [13],7
same,IOP OS,[1]; [13],7
same,IOP OD,[1]; [14],8
same,IOP OS,[1]; [14],7
same,IOP OD,[1]; [15],13
same,IOP OS,[1]; [15],10
same,IOP OD,[1]; [16],6
same,IOP OS,[1]; [16],7
same,IOP OD,[1]; [17],9
same,IOP OS,[1]; [17],8
same,IOP OD,[1]; [18],12
same,IOP OS,[1]; [18],11
same,IOP OD,[1]; [19],7
same,IOP OS,[1]; [19],7
same,IOP OD,[1]; [20],7
same,IOP OS,[1]; [20],7
same,IOP OD,[1]; [21],9
same,IOP OS,[1]; [21],10
same,IOP OD,[1]; [22],7
same,IOP OS,[1]; [22],7
same,IOP OD,[1]; [23],7
same,IOP OS,[1]; [23],7
same,IOP OD,[1]; [24],6
same,IOP OS,[1]; [24],6
same,IOP OD,[1]; [25],7
same,IOP OS,[1]; [25],8
same,IOP OD,[1]; [26],8
same,IOP OS,[1]; [26],7
same,IOP OD,[1]; [27],7
same,IOP OS,[1]; [27],7
same,IOP OD,[1]; [28],6
same,IOP OS,[1]; [28],5
same,persistence of the reduction of intra-ocular pressure,[1]; after exposure,hours to days
same,reduction of IOP,"[1]; canine, dosages ranging from 0.002% to 0.700% LC (by weight), overall",35-40%
same,IOP OD (intraocular pressure right eye),[1]; [29],8
same,IOP OS (intraocular pressure left eye),[1]; [29],8
same,IOP OD (intraocular pressure right eye),[1]; [30],8
same,IOP OS (intraocular pressure left eye),[1]; [30],8
same,IOP OD (intraocular pressure right eye),[1]; [31],8
same,IOP OS (intraocular pressure left eye),[1]; [31],9
same,IOP OD (intraocular pressure right eye),[1]; [32],10
same,IOP OS (intraocular pressure left eye),[1]; [32],9
same,IOP OD (intraocular pressure right eye),[1]; [33],10
same,IOP OS (intraocular pressure left eye),[1]; [33],7
same,IOP OD (intraocular pressure right eye),[1]; [34],11
same,IOP OS (intraocular pressure left eye),[1]; [34],11
same,IOP OD (intraocular pressure right eye),[1]; [35],7
same,IOP OS (intraocular pressure left eye),[1]; [35],8
same,IOP OD (intraocular pressure right eye),[1]; [36],9
same,IOP OS (intraocular pressure left eye),[1]; [36],10
same,IOP OD (intraocular pressure right eye),[1]; [37],11
same,IOP OS (intraocular pressure left eye),[1]; [37],5
same,"EPA toxicity class, eye effects",[2],moderately toxic
same,water solubility,[3],low
same,local or systemic adverse events,"[4]; Example 1, daily complete ophthalmic examinations and toxicology studies of blood",no local or systemic adverse events
same,AE,"[4]; Example 2, topical LC 0.600%, Day 1, drop 9:30",0
same,AE,"[4]; Example 2, topical LC 0.600%, Day 1, drop 12:00",0
same,AE,"[4]; Example 2, topical LC 0.600%, Day 3, drop 9:45",0
same,AE,"[4]; Example 2, topical LC 0.600%, Day 3, drop 12:10",0
same,AE,"[4]; Example 3, topical LC 0.200%, Day 2, drop 7:40",0
same,AE,"[4]; Example 3, topical LC 0.200%, Day 2, drop 12:22",0
same,AE,"[4]; Example 3, topical LC 0.200%, Day 2, drop 17:05",0
same,AE,"[4]; Example 3, topical LC 0.300%, Day 3, drop 7:25",0
same,AE,"[4]; Example 3, topical LC 0.300%, Day 3, drop 12:25",0
same,AE,"[4]; Example 3, topical LC 0.300%, Day 3, drop 17:40",0
same,AE,"[4]; Example 3, topical LC 0.400%, Day 4, drop 7:25",0
same,AE,"[4]; Example 3, topical LC 0.400%, Day 4, drop 12:40",0
same,AE,"[4]; Example 3, topical LC 0.400%, Day 4, drop 17:25",0
same,AE,"[4]; Example 3, topical LC 0.500%, Day 5, drop 7:30",0
same,AE,"[4]; Example 3, topical LC 0.500%, Day 5, drop 12:40",0
same,AE,"[4]; Example 3, topical LC 0.600%, Day 8, drop 7:30",0
same,AE,"[4]; Example 3, topical LC 0.600%, Day 8, drop 12:05",0
same,AE,"[4]; Example 3, topical LC 0.600%, Day 8, drop 17:00",0
same,AE,"[4]; Example 3, topical LC 0.700%, Day 9, drop 7:05",0
same,AE,"[4]; Example 3, topical LC 0.700%, Day 9, drop 12:25",1
same,AE,"[4]; Example 3, topical LC 0.700%, Day 9, drop 17:05",1
same,adverse events at doses other than 0.700%,[4]; topical 0.002% to 0.600% LC,No adverse events
same,adverse events at the 0.700% dose,[4]; topical 0.700% LC,"minimal, reversible inferior conjunctival hyperemia"
same,AE (adverse event),"[4]; topical LC 0.002%, Day 4, drop 8:30",0
same,AE (adverse event),"[4]; topical LC 0.002%, Day 5, drop 9:00",0
same,AE (adverse event),"[4]; topical LC 0.002%, Day 5, drop 14:30",0
same,AE (adverse event),"[4]; topical LC 0.020%, Day 7, drop 9:00",0
same,AE (adverse event),"[4]; topical LC 0.020%, Day 7, drop 15:00",0
same,AE (adverse event),"[4]; topical LC 0.050%, Day 9, drop 9:00",0
same,AE (adverse event),"[4]; topical LC 0.050%, Day 9, drop 15:00",0
same,AE (adverse event),"[4]; topical LC 0.100%, Day 11, drop 9:00",0
same,AE (adverse event),"[4]; topical LC 0.100%, Day 11, drop 15:00",0
same,EPA toxicity class when inhaled,[5],moderately toxic
same,toxicity in skin effects for rabbits,[6],low toxicity
same,"EPA toxicity class, skin effects for rats",[7],moderately toxic
same,onset of symptoms after exposure,[8],≤ 30 min
same,symptoms reported on exposure,[8],facial tingling and burning
same,skin sensitivity in guinea pigs,[9],no skin sensitivity
